Assay results as given in BindingDB's records for doi:10.1016/j.bmcl.2018.12.057 (Indian Institute of Technology Madras, 2019).

Target: Luciferin 4-monooxygenase (Photinus pyralis, UniProt P08659)
Assay: Activation of firefly luciferase activity expressed in HEK293T cells after 6 hrs by luminescence assay

Chain of Luciferin 4-monooxygenase (P08659 whole entry): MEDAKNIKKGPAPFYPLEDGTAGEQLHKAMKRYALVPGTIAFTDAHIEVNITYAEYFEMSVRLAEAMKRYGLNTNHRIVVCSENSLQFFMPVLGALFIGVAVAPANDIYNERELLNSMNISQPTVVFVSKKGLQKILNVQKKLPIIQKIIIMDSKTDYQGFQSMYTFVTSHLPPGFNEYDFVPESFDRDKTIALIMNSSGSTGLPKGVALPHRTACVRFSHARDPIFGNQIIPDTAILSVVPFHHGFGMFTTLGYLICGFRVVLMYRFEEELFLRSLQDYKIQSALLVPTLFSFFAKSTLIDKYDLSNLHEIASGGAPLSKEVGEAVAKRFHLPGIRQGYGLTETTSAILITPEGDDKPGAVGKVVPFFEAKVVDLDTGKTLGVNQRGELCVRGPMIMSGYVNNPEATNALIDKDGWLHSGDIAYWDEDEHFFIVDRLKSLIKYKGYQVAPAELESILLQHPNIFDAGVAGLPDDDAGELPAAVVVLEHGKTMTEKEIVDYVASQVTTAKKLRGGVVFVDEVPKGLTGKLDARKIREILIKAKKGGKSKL

CCCCCCCCCCCCCC(=O)O[C@@H]1[C@@H](C)[C@@]2(O)[C@@H](C=C(CO)C[C@]3(O)C(=O)C(C)=C[C@@H]23)[C@@H]2C(C)(C)[C@]12OC(C)=O [phorbol 13-acetate 12-myristate]
EC50: 10 nM
